Tests used:
Format in all cases: cell-based
[1] = system: Staphylococcus aureus; test: Contact germicidal screen, Staphylococcus aureus ATCC No. 6538
Procedure: (§1) The organisms used in the contact germicidal screen are all maintained as stock cultures on nutrient agar […] 4° C. They are transferred and biochemically diagnosed monthly. The five organisms used are: The media used are: […] Overnight cultures of the test organisms are grown in tryptose phosphate broth. After 15-16 hours, the cultures are centrifuged at […] for 15 minutes, and the supernatant replaced with fresh warm (37° C.) media. After two hours of incubation, the absorbance of the culture at 650 nm is determined and diluted with nutrient broth to 1×10^7 colony forming units per ml (using a previous determined standard curve: colony forming units/ml vs. absorbance at 650). The diluted cultures are maintained at 4°-8° C. throughout the screen. The compounds are weighed into sterile 100 ml volumetric flasks, and immediately before screening dissolved in one of the following buffers: 0.1 M NaOAc pH 4.6 or 0.1 M NaH2 PO4 pH 7.0. If solubility poses a problem, 10-30% methanol is used to effect solution. Two denaturing agents are also tested: […] Horse Serum restored with 100 ml distilled water and 10% Trition×100. When used, 2.5 ml of the denaturing agent is mixed with 2.5 ml of double strength test solution thirty minutes before the bacterial suspension is added. The screen is initiated when 0.2 ml of the bacterial suspension is added to 5.0 ml of the test solution contained in a sterile 25 ml glass stoppered flask. At intervals of 0.5, 2.5, 5.0, 10.0 and 15.0 minutes, a loopful of the inoculated test solution is subcultured into 5 ml of sterile nutrient broth and mixed with a vortex, the high dilution serving to stop the action of the compound. All of the subculture tubes are incubated at 37° C. and checked for signs of growth by turbidity at 1, 3, 5 and 7 days. The earliest subculture time at which no growth is present is considered the endpoint and is recorded as the sterilization time. An aliquot of 0.2 ml of the diluted culture is transferred to 5 ml of buffer to simulate 0.2 ml in 5 ml of test solution. (a) Purity: A loopful of the inoculated buffer is streaked onto nutrient agar to check colony morphology and lack of contaminants. (b) Viability: A loopful of the inoculated buffer is subcultured to 5 ml of nutrient broth as in the screen and incubated at 37° C. for 24 hours. (c) Dilution of the Test Solution: A loopful of the test solution is transferred to a 5 ml tube of nutrient broth, and a loopful of the inoculated buffer is transferred to the same tube of broth. […] (d) Purity of Organisms in the Test Solution: After the 15 minute subculture, a loopful of the inoculated test solution is streaked onto nutrient agar to insure that contamination has not occurred during the screen. (e) lack of Bactericidal Activity of Buffers and Other Solvents: Before a buffer or other solvent is used as a diluent, it is screened against the five organisms to insure that the buffer or solvent has no antibacterial activity itself.

[2] = system: Staphylococcus epidermidis; test: Contact germicidal screen, Staphylococcus epidermidis ATCC No. 12228
Procedure: as §1

[3] = system: Salmonella typhimurium; test: Contact germicidal screen, Salmonella typhimurium ATCC No. 13311
Procedure: as §1

[4] = 10.0+ PPM, 0.1M NaOAc pH 4.6, screened simultaneously with four other compounds
[5] = 300 PPM with 50% Horse Serum, 0.1M NaOAc pH 4.6
[6] = 300 PPM with 50% Triton X100, 0.1M NaOAc pH 4.6
[7] = 308.0 PPM, Triton X100 (10% solution):pH 4.6 buffer 1:1
[8] = 308.0 PPM, horse serum:pH 4.6 buffer 1:1
[9] = 1000 PPM with 50% Horse Serum, 0.1M NaOAc pH 4.6
[10] = 1000.0 PPM, horse serum:pH 4.6 buffer 1:1
[11] = 1012.3 PPM, 0.1M NaH2PO4 pH 7.0
[12] = 338.7 PPM, horse serum:pH 4.6 buffer 1:1
[13] = 1024.0 PPM, horse serum:pH 4.6 buffer 1:1
[14] = 1070.3 PPM, 0.1M NaH2PO4 pH 7.0

## CC(C)(CCC(=O)O)N(Cl)Cl [(III), 4-Dichloroamino-4-methylvaleric acid]
[1]; 9.6 PPM, 0.1M NaOAc pH 4.6
  Sterilization Time: 10.0 min
[1]; 9.7 PPM, 0.1M NaH2PO4 pH 7.0
  Sterilization Time: 15 min
[1]; [4]
  Sterilization Time: 5.0 min
[1]; 10 PPM, 0.1M NaOAc pH 4.6
  Sterilization Time (summary): 5.0 min
[1]; 100 PPM, 0.1M NaOAc pH 4.6
  Sterilization Time (summary): 2.5 min
[1]; 102.2 PPM, 0.1M NaOAc pH 4.6
  Sterilization Time: 2.5 min
[1]; 103.5 PPM, 0.1M NaH2PO4 pH 7.0
  Sterilization Time: 15 min
[1]; [5]
  Sterilization Time (summary): 5.0 min
[1]; [6]
  Sterilization Time (summary): 2.5 min
[1]; [7]
  Sterilization Time: 2.5 min
[1]; [8]
  Sterilization Time: 5.0 min
[1]; [9]
  Sterilization Time (summary): 0.5 min
[1]; 1000 PPM, 0.1M NaOAc pH 4.6
  Sterilization Time (summary): 0.5 min
[1]; [10]
  Sterilization Time: 0.5 min
[1]; 1007.7 PPM, 0.1M NaOAc pH 4.6
  Sterilization Time: 0.5 min
[1]; [11]
  Sterilization Time: 5.0 min
[2]; 9.6 PPM, 0.1M NaOAc pH 4.6
  Sterilization Time: 5.0 min
[2]; 9.7 PPM, 0.1M NaH2PO4 pH 7.0
  Sterilization Time: 15 min
[2]; [4]
  Sterilization Time: 10.0 min
[2]; 10 PPM, 0.1M NaOAc pH 4.6
  Sterilization Time (summary): 10.0 min
[2]; 100 PPM, 0.1M NaOAc pH 4.6
  Sterilization Time (summary): 0.5 min
[2]; 102.2 PPM, 0.1M NaOAc pH 4.6
  Sterilization Time: 0.5 min
[2]; 103.5 PPM, 0.1M NaH2PO4 pH 7.0
  Sterilization Time: 15 min
[2]; [5]
  Sterilization Time (summary): 10.0 min
[2]; [6]
  Sterilization Time (summary): 2.5 min
[2]; [7]
  Sterilization Time: 2.5 min
[2]; [8]
  Sterilization Time: 10.0 min
[2]; [9]
  Sterilization Time (summary): 2.5 min
[2]; 1000 PPM, 0.1M NaOAc pH 4.6
  Sterilization Time (summary): 0.5 min
[2]; [10]
  Sterilization Time: 2.5 min
[2]; 1007.7 PPM, 0.1M NaOAc pH 4.6
  Sterilization Time: 0.5 min
[2]; [11]
  Sterilization Time: 5.0 min
[3]; 9.6 PPM, 0.1M NaOAc pH 4.6
  Sterilization Time: 2.5 min
[3]; 9.7 PPM, 0.1M NaH2PO4 pH 7.0
  Sterilization Time: 15 min
[3]; [4]
  Sterilization Time: 2.5 min
[3]; 10 PPM, 0.1M NaOAc pH 4.6
  Sterilization Time (summary): 2.5 min
[3]; 100 PPM, 0.1M NaOAc pH 4.6
  Sterilization Time (summary): 0.5 min
[3]; 102.2 PPM, 0.1M NaOAc pH 4.6
  Sterilization Time: 0.5 min
[3]; 103.5 PPM, 0.1M NaH2PO4 pH 7.0
  Sterilization Time: 5.0 min
[3]; [5]
  Sterilization Time (summary): 2.5 min
[3]; [6]
  Sterilization Time (summary): 0.5 min
[3]; [7]
  Sterilization Time: 0.5 min
[3]; [8]
  Sterilization Time: 2.5 min
[3]; [9]
  Sterilization Time (summary): 0.5 min
[3]; 1000 PPM, 0.1M NaOAc pH 4.6
  Sterilization Time (summary): 0.5 min
[3]; [10]
  Sterilization Time: 0.5 min
[3]; 1007.7 PPM, 0.1M NaOAc pH 4.6
  Sterilization Time: 0.5 min
[3]; [11]
  Sterilization Time: 0.5 min

## CC(C)(COC(=O)CCC(=O)O)N(Cl)Cl [(IV), 2-Dichloroamino-2-methylpropylhemisuccinate]
[1]; 8.6 PPM, 0.1M NaOAc pH 4.6
  Sterilization Time: 15.0 min
[1]; 9.8 PPM, 0.1M NaH2PO4 pH 7.0
  Sterilization Time: 15 min
[1]; [4]
  Sterilization Time: 15 min
[1]; 10 PPM, 0.1M NaOAc pH 4.6
  Sterilization Time (summary): 15 min
[1]; 100 PPM, 0.1M NaOAc pH 4.6
  Sterilization Time (summary): 2.5 min
[1]; 106.2 PPM, 0.1M NaOAc pH 4.6
  Sterilization Time: 2.5 min
[1]; 149.7 PPM, 0.1M NaH2PO4 pH 7.0
  Sterilization Time: 10.0 min
[1]; [5]
  Sterilization Time (summary): 15.0 min
[1]; [6]
  Sterilization Time (summary): 2.5 min
[1]; [7]
  Sterilization Time: 2.5 min
[1]; [12]
  Sterilization Time: 15.0 min
[1]; [9]
  Sterilization Time (summary): 2.5 min
[1]; 1000 PPM, 0.1M NaOAc pH 4.6
  Sterilization Time (summary): 0.5 min
[1]; 1008.0 PPM, 0.1M NaOAc pH 4.6
  Sterilization Time: 0.5 min
[1]; [13]
  Sterilization Time: 2.5 min
[1]; [14]
  Sterilization Time: 10.0 min
[2]; 8.6 PPM, 0.1M NaOAc pH 4.6
  Sterilization Time: 15.0 min
[2]; 9.8 PPM, 0.1M NaH2PO4 pH 7.0
  Sterilization Time: 15 min
[2]; [4]
  Sterilization Time: 10.0 min
[2]; 10 PPM, 0.1M NaOAc pH 4.6
  Sterilization Time (summary): 10.0 min
[2]; 100 PPM, 0.1M NaOAc pH 4.6
  Sterilization Time (summary): 2.5 min
[2]; 106.2 PPM, 0.1M NaOAc pH 4.6
  Sterilization Time: 2.5 min
[2]; 149.7 PPM, 0.1M NaH2PO4 pH 7.0
  Sterilization Time: 15 min
[2]; [5]
  Sterilization Time (summary): 15 min
[2]; [6]
  Sterilization Time (summary): 2.5 min
[2]; [7]
  Sterilization Time: 2.5 min
[2]; [12]
  Sterilization Time: 15 min
[2]; [9]
  Sterilization Time (summary): 2.5 min
[2]; 1000 PPM, 0.1M NaOAc pH 4.6
  Sterilization Time (summary): 0.5 min
[2]; 1008.0 PPM, 0.1M NaOAc pH 4.6
  Sterilization Time: 0.5 min
[2]; [13]
  Sterilization Time: 2.5 min
[2]; [14]
  Sterilization Time: 10.0 min
[3]; 8.6 PPM, 0.1M NaOAc pH 4.6
  Sterilization Time: 5.0 min
[3]; 9.8 PPM, 0.1M NaH2PO4 pH 7.0
  Sterilization Time: 15 min
[3]; [4]
  Sterilization Time: 2.5 min
[3]; 10 PPM, 0.1M NaOAc pH 4.6
  Sterilization Time (summary): 2.5 min
[3]; 100 PPM, 0.1M NaOAc pH 4.6
  Sterilization Time (summary): 0.5 min
[3]; 106.2 PPM, 0.1M NaOAc pH 4.6
  Sterilization Time: 0.5 min
[3]; 149.7 PPM, 0.1M NaH2PO4 pH 7.0
  Sterilization Time: 15.0 min
[3]; [5]
  Sterilization Time (summary): 10.0 min
[3]; [6]
  Sterilization Time (summary): 0.5 min
[3]; [7]
  Sterilization Time: 0.5 min
[3]; [12]
  Sterilization Time: 10.0 min
[3]; [9]
  Sterilization Time (summary): 2.5 min
[3]; 1000 PPM, 0.1M NaOAc pH 4.6
  Sterilization Time (summary): 0.5 min
[3]; 1008.0 PPM, 0.1M NaOAc pH 4.6
  Sterilization Time: 0.5 min
[3]; [13]
  Sterilization Time: 2.5 min
[3]; [14]
  Sterilization Time: 0.5 min

From patent US4386103A, “Dichloroamino acid derivatives useful as potent germicidal and fungicidal agents” (Merck & Co., Inc., priority 1981, dated 1983)
